Key:
[1] = Molar enthalpy of transition or fusion; conditions: Crystal; DSC
[2] = for Triple point temperature: DTA

CN(C)C(=O)c1ccccc1 [N,N-dimethylbenzamide]
Conditions	Molar enthalpy of transition or fusion [kcal/mol]
[1]	5.07

[2], Crystal
Conditions	vapor or sublimation pressure [kPa]
297.04 K	0.00054
299.03 K	0.00069
301.02 K	0.00086
303.02 K	0.0011
305 K	0.00138
307 K	0.00171
308.98 K	0.00215
310.98 K	0.00269
312.98 K	0.00336
314.98 K	0.00418

[2], Liquid, Closed cell (Static) method
Conditions	vapor or sublimation pressure [kPa]
301.98 K	0.00134
303.99 K	0.00162
305.97 K	0.00195
307.96 K	0.00232
310.43 K	0.00289
312.3 K	0.00343
314 K	0.00399
316 K	0.00472
317.97 K	0.0056
319.95 K	0.00658
321.94 K	0.00776
323.93 K	0.00909
325.88 K	0.01066
327.91 K	0.01239
329.85 K	0.01439
331.88 K	0.01676
333.84 K	0.01949
335.85 K	0.02238
337.8 K	0.02598
339.82 K	0.02969
341.77 K	0.03432
343.8 K	0.03916
345.73 K	0.04503
347.77 K	0.05151
349.68 K	0.05866
351.75 K	0.06697
353.64 K	0.07571
355.7 K	0.08611
357.62 K	0.09722
359.68 K	0.1102
361.66 K	0.1244

Conditions	Triple point temperature [K]
[2], Crystal	316.9

NC(=O)c1ccccc1 [benzamide]
Conditions	Molar enthalpy of transition or fusion [kcal/mol]
[1]	5.54

[2]
Conditions	vapor or sublimation pressure [kPa]
324.11 K, Crystal, Calculated from knudsen effusion weight loss	0.000108
326.19 K, Crystal, Calculated from knudsen effusion weight loss	0.000136
328.19 K, Crystal, Calculated from knudsen effusion weight loss	0.000169
330.1 K, Crystal, Calculated from knudsen effusion weight loss	0.000215
332.16 K, Crystal, Calculated from knudsen effusion weight loss	0.000267
334.18 K, Crystal, Calculated from knudsen effusion weight loss	0.000332
336.1 K, Crystal, Calculated from knudsen effusion weight loss	0.000415
338.17 K, Crystal, Calculated from knudsen effusion weight loss	0.000513
340.19 K, Crystal, Calculated from knudsen effusion weight loss	0.000634
342.11 K, Crystal, Calculated from knudsen effusion weight loss	0.000794
344.18 K, Crystal, Calculated from knudsen effusion weight loss	0.000981
344.8 K, Crystal, Closed cell (Static) method	0.0011
346.18 K, Crystal, Calculated from knudsen effusion weight loss	0.001205
346.78 K, Crystal, Closed cell (Static) method	0.00135
348.77 K, Crystal, Closed cell (Static) method	0.00166
350.76 K, Crystal, Closed cell (Static) method	0.00204
352.74 K, Crystal, Closed cell (Static) method	0.00247
354.72 K, Crystal, Closed cell (Static) method	0.00301
356.71 K, Crystal, Closed cell (Static) method	0.00366
358.69 K, Crystal, Closed cell (Static) method	0.00438
360.68 K, Crystal, Closed cell (Static) method	0.00534
362.68 K, Crystal, Closed cell (Static) method	0.00631
364.64 K, Crystal, Closed cell (Static) method	0.00769
366.62 K, Crystal, Closed cell (Static) method	0.00906
368.6 K, Crystal, Closed cell (Static) method	0.01095
370.59 K, Crystal, Closed cell (Static) method	0.01299
372.59 K, Crystal, Closed cell (Static) method	0.01556
374.55 K, Crystal, Closed cell (Static) method	0.01829
376.53 K, Crystal, Closed cell (Static) method	0.02177
378.52 K, Crystal, Closed cell (Static) method	0.02586
380.43 K, Liquid, Closed cell (Static) method	0.04263
380.48 K, Crystal, Closed cell (Static) method	0.03068
382.43 K, Liquid, Closed cell (Static) method	0.0481
382.47 K, Crystal, Closed cell (Static) method	0.03596
384.38 K, Liquid, Closed cell (Static) method	0.05455
384.44 K, Crystal, Closed cell (Static) method	0.04227
386.42 K, Crystal, Closed cell (Static) method	0.04949
386.56 K, Liquid, Closed cell (Static) method	0.06285
388.3 K, Liquid, Closed cell (Static) method	0.0702
388.4 K, Crystal, Closed cell (Static) method	0.058
390.38 K, Crystal, Closed cell (Static) method	0.06796
390.51 K, Liquid, Closed cell (Static) method	0.08051
392.28 K, Liquid, Closed cell (Static) method	0.0897
392.32 K, Crystal, Closed cell (Static) method	0.07856
394.32 K, Crystal, Closed cell (Static) method	0.09224
394.51 K, Liquid, Closed cell (Static) method	0.102
396.37 K, Liquid, Closed cell (Static) method	0.1144
398.34 K, Liquid, Closed cell (Static) method	0.129
400.4 K, Liquid, Closed cell (Static) method	0.1453
402.25 K, Liquid, Closed cell (Static) method	0.1597
404.42 K, Liquid, Closed cell (Static) method	0.1805
406.32 K, Liquid, Closed cell (Static) method	0.1992
408.4 K, Liquid, Closed cell (Static) method	0.2257
410.17 K, Liquid, Closed cell (Static) method	0.2479
412.21 K, Liquid, Closed cell (Static) method	0.279
414.31 K, Liquid, Closed cell (Static) method	0.3088
416.23 K, Liquid, Closed cell (Static) method	0.3462
418.37 K, Liquid, Closed cell (Static) method	0.3819
420.28 K, Liquid, Closed cell (Static) method	0.4246
422.2 K, Liquid, Closed cell (Static) method	0.4667
424.23 K, Liquid, Closed cell (Static) method	0.5208
426.18 K, Liquid, Closed cell (Static) method	0.5676
428.17 K, Liquid, Closed cell (Static) method	0.6262
430.15 K, Liquid, Closed cell (Static) method	0.6836
432.17 K, Liquid, Closed cell (Static) method	0.7596
434.17 K, Liquid, Closed cell (Static) method	0.8264
436.2 K, Liquid, Closed cell (Static) method	0.922
438.2 K, Liquid, Closed cell (Static) method	1.002

Conditions	Triple point temperature [K]
[2], Crystal	401.34

CNC(=O)c1ccccc1 [N-methylbenzamide]
Conditions	Molar enthalpy of transition or fusion [kcal/mol]
[1]	4.45

[2], Liquid, Closed cell (Static) method
Conditions	vapor or sublimation pressure [kPa]
322.88 K	0.00067
324.94 K	0.00083
326.92 K	0.00099
328.89 K	0.00117
330.88 K	0.0014
332.86 K	0.00166
334.86 K	0.00201
336.84 K	0.00241
338.82 K	0.00284
340.8 K	0.00336
342.8 K	0.00398
344.8 K	0.0047
346.77 K	0.00547
348.77 K	0.0064
350.75 K	0.00753
352.74 K	0.00861
354.74 K	0.01013
356.7 K	0.01168
358.72 K	0.01359
360.66 K	0.01572
362.68 K	0.01812
364.63 K	0.02093
366.62 K	0.02394
368.59 K	0.0275
370.59 K	0.03148
372.57 K	0.03612
374.56 K	0.04095
376.53 K	0.04725
378.51 K	0.05325
380.49 K	0.06051
382.47 K	0.06884
384.46 K	0.07804
386.43 K	0.08821
388.4 K	0.101

[2], Crystal
Conditions	vapor or sublimation pressure [kPa]
324.88 K	0.0005
326.83 K	0.00063
328.93 K	0.0008
330.82 K	0.00098
332.75 K	0.00121
334.8 K	0.00152
336.82 K	0.00189
338.85 K	0.00235
340.81 K	0.00284
342.75 K	0.00348
344.79 K	0.00426
345.79 K	0.00471
346.8 K	0.00528
347.77 K	0.00575
348.76 K	0.00631

Conditions	Triple point temperature [K]
[2], Crystal	347.41

From the NIST ThermoML archive (doi:10.1021/je100175j)
